Values of other authors, collected in patent US20210137911A1, “NOVEL CHRONOTHERAPY BASED ON CIRCADIAN RHYTHMS” (THE TRUSTEES OF THE UNIVERSITY OF PENNSYLVANIA, priority 2014, published 2021).
Like-named read-outs stand apart in the source and are kept apart here.

Details: cited from earlier work
[1] = half-life of therapeutic compound as listed in Table 1

Compound	½ Life [1]	further results
CC(C)C[C@H](NC(=O)CNC(=O)[C@H](Cc1ccc(O)cc1)NC(=O)[C@H](CO)NC(=O)[C@H](Cc1c[nH]c2ccccc12)NC(=O)[C@H](Cc1cnc[nH]1)NC(=O)[C@@H]1CCC(=O)N1)C(=O)N[C@@H](CCCNC(=N)N)C(=O)N1CCC[C@H]1C(=O)NCC(N)=O [Gonadorelin]	–	½ Life (in vivo): 0.033 h
CC(C)C[C@H](NC(=O)[C@@H](COC(C)(C)C)NC(=O)[C@H](Cc1ccc(O)cc1)NC(=O)[C@H](CO)NC(=O)[C@H](Cc1c[nH]c2ccccc12)NC(=O)[C@H](Cc1cnc[nH]1)NC(=O)[C@@H]1CCC(=O)N1)C(=O)N[C@@H](CCCNC(=N)N)C(=O)N1CCC[C@H]1C(=O)NNC(N)=O [Goserelin]	4 h	–
CC(=O)Oc1ccc2c3c1O[C@H]1[C@@H](OC(C)=O)C=C[C@H]4[C@@H](C2)N(C)CC[C@@]341 [Heroin]	0.166 h	–
NNc1nncc2ccccc12 [Hydralazine]	3 h	–
NS(=O)(=O)c1cc2c(cc1Cl)NCNS2(=O)=O [Hydrocholorthiazide, reference compound]	–	½ Life (in vivo): 5.6 h; half-life (see Table 1): 5.6 h
COc1ccc2c3c1O[C@H]1C(=O)CC[C@H]4[C@@H](C2)N(C)CC[C@]314 [Hydrocodone]	–	½ Life (in vivo): 1.25 h
NC(=O)NO [Hydroxyurea]	3 h	–
NC(N)=NCCC[C@@H](N)C(=O)N[C@@H](CCCN=C(N)N)C(=O)N1CCC[C@H]1C(=O)N1C[C@H](O)C[C@H]1C(=O)NCC(=O)N[C@@H](Cc1cccs1)C(=O)N[C@@H](CO)C(=O)N1Cc2ccccc2C[C@@H]1C(=O)N1[C@H](C(=O)N[C@@H](CCCN=C(N)N)C(=O)O)C[C@@H]2CCCC[C@@H]21 [Icatibant]	–	½ Life (in vivo): 1.4 h
CC#CCC(C)[C@H](O)/C=C/[C@@H]1[C@H]2C/C(=C/CCCC(=O)O)C[C@H]2C[C@H]1O (some centres unmarked) [Iloprost]	0.333 h	–
CC(C)[N+]1(C)[C@@H]2CC[C@H]1CC(OC(=O)C(CO)c1ccccc1)C2.[Br-] (some centres unmarked) [Ipratropium bromide]	2 h	–
NNC(=O)c1ccncc1 [Isoniazid]	0.5 h	–
O=[N+]([O-])O[C@H]1CO[C@H]2[C@@H]1OC[C@H]2O[N+](=O)[O-] [Isosorbide Dinitrate]	1 h	–
O=[N+]([O-])O[C@@H]1CO[C@H]2[C@@H]1OC[C@@H]2O [Isosorbide Mononitrate]	5 h	–
CNC1(c2ccccc2Cl)CCCCC1=O (centres unmarked) [Ketamine]	–	½ Life (in vivo): 2.5 h
CCC(=O)C1(c2cccc(O)c2)CCN(C)CC1 [Ketobemidone]	–	½ Life (in vivo): 2.42 h
CC(=O)N1CCN(c2ccc(OCC3COC(Cn4ccnc4)(c4ccc(Cl)cc4Cl)O3)cc2)CC1 (centres unmarked) [Ketoconazole]	2 h	–
O=C(c1ccccc1)c1ccc2n1CCC2C(=O)O (centres unmarked) [Ketorolac]	2.5 h	–
N[C@@H](Cc1ccc(O)c(O)c1)C(=O)O [L-DOPA]	–	½ Life (in vivo): 0.833 h
Cc1c(OCC(F)(F)F)ccnc1C[S+]([O-])c1nc2ccccc2[nH]1 (centres unmarked) [Lansoprazole]	1.5 h	–
CC(C)OC(=O)CCC/C=C\C[C@@H]1[C@@H](CC[C@@H](O)CCc2ccccc2)[C@H](O)C[C@@H]1O [Latanoprost]	0.283 h	–
Nc1cccc2c1CN(C1CCC(=O)NC1=O)C2=O (centres unmarked) [Lenalidomide]	3 h	–
CCNC(=O)[C@@H]1CCCN1C(=O)[C@H](CCCNC(=N)N)NC(=O)[C@H](CC(C)C)NC(=O)[C@@H](CC(C)C)NC(=O)[C@H](Cc1ccc(O)cc1)NC(=O)[C@H](CO)NC(=O)[C@H](Cc1c[nH]c2ccccc12)NC(=O)[C@H](Cc1c[nH]cn1)NC(=O)[C@@H]1CCC(=O)N1 [Leuprolide]	–	½ Life (in vivo): 3 h
C=CCN1CC[C@]23CCCC[C@H]2[C@H]1Cc1ccc(O)cc13 [Levallorphan]	1 h	–
c1ccc([C@H]2CN3CCSC3=N2)cc1 [Levamisole]	4.4 h	–

Compound	½ Life [1]	further results
C[C@@H]1CC(=O)NN=C1c1ccc(NN=C(C#N)C#N)cc1 [Levosimendan]	1 h	–
CN1C(C(=O)Nc2ccccn2)=C(O)c2sc(Cl)cc2S1(=O)=O [Lornoxicam]	3 h	–
CCCCc1nc(Cl)c(CO)n1Cc1ccc(-c2ccccc2-c2nn[nH]n2)cc1 [Losartan, reference compound]	1 h	–
CC[C@H](C)C(=O)O[C@H]1C[C@@H](C)C=C2C=C[C@H](C)[C@H](CC[C@@H]3C[C@@H](O)CC(=O)O3)[C@H]21 [Lovastatin]	5.3 h	–
CN1CCN(C2=Nc3ccccc3Oc3ccc(Cl)cc32)CC1 [Loxapine]	4 h	–
COC(=O)Nc1nc2ccc(C(=O)c3ccccc3)cc2[nH]1 [Mebendazole]	2.5 h	–
Cc1cccc(Nc2ccccc2C(=O)O)c1C [Mefenamic acid]	2 h	–
COc1ccc2[nH]cc(CCNC(C)=O)c2c1 [Melatonin]	0.5833 h	–
CN[C@@H](C)Cc1ccccc1 [Methamphetamine]	4 h	–
Cn1cc[nH]c1=S [Methimazole]	5 h	–
CN1C(=O)CC(C)(c2ccccc2)C1=O (centres unmarked) [Methsuximide]	1.4 h	–
COC(=O)C(c1ccccc1)C1CCCCN1 (centres unmarked) [Methylphenidate]	–	½ Life (in vivo): 3 h
C[C@H]1C[C@@H]2[C@H]([C@@H](O)C[C@@]3(C)[C@H]2CC[C@]3(O)C(=O)CO)[C@@]2(C)C=CC(=O)C=C12 [Methylprednisolone]	1 h	–
COc1ccc2cc1Oc1cc3c(cc1OC)CC[N+](C)(C)[C@H]3Cc1ccc(cc1)Oc1c(OC)c(OC)cc3c1[C@@H](C2)[N+](C)(C)CC3 [Metocurine Iodide]	–	½ Life (in vivo): 3 h
Cc1ncc2n1-c1ccc(Cl)cc1C(c1ccccc1F)=NC2 [Midazolam]	–	½ Life (in vivo): 1.8 h
OCCN1C[C@H](O)[C@@H](O)[C@H](O)[C@H]1CO [Miglitol]	2 h	–
Cc1[nH]c(=O)c(C#N)cc1-c1ccncc1 [Milrinone]	2.3 h	–
Nc1cc(N2CCCCC2)nc(N)[n+]1[O-] [Minoxidil]	–	½ Life (in vivo): 4.2 h
COc1cc2c(cc1OC)[C@@H](Cc1cc(OC)c(OC)c(OC)c1)[N+](C)(CCCOC(=O)CC/C=C/CCC(=O)OCCC[N+]1(C)CCc3cc(OC)c(OC)cc3[C@H]1Cc1cc(OC)c(OC)c(OC)c1)CC2 (some centres unmarked) [Mivacurium]	1.7 h	–
O=C(NCCN1CCOCC1)c1ccc(Cl)cc1 [Moclobemide]	1 h	–
CCOC(=O)[C@H](CCc1ccccc1)N[C@@H](C)C(=O)N1Cc2cc(OC)c(OC)cc2C[C@H]1C(=O)O [Moexipril]	1 h	–
C[C@@H]1C[C@H]2[C@@H]3CCC4=CC(=O)C=C[C@]4(C)[C@@]3(Cl)[C@@H](O)C[C@]2(C)[C@@]1(O)C(=O)CCl [Mometasone]	5.8 h	–
CC(C)(O)c1ccccc1CC[C@@H](SCC1(CC(=O)O)CC1)c1cccc(/C=C/c2ccc3ccc(Cl)cc3n2)c1 [Montelukast]	–	½ Life (in vivo): 2.7 h
CCOC(=O)Nc1ccc2c(c1)N(C(=O)CCN1CCOCC1)c1ccccc1S2 [Moricizine]	2 h	–

Compound	½ Life [1]	further results
CN1CC[C@]23c4c5ccc(O)c4O[C@H]2[C@@H](O)C=C[C@H]3[C@H]1C5 [Morphine]	–	½ Life (in vivo): 2 h
CCCCCCC(C)(C)c1cc(O)c2c(c1)OC(C)(C)C1CCC(=O)CC21 (centres unmarked) [Nabilone]	2 h	–
CC(C)C[C@H](NC(=O)[C@@H](Cc1ccc2ccccc2c1)NC(=O)[C@H](Cc1ccc(O)cc1)NC(=O)[C@H](CO)NC(=O)[C@H](Cc1c[nH]c2ccccc12)NC(=O)[C@H](Cc1c[nH]cn1)NC(=O)[C@@H]1CCC(=O)N1)C(=O)N[C@@H](CCCNC(=N)N)C(=O)N1CCC[C@H]1C(=O)NCC(N)=O [Nafarelin]	–	½ Life (in vivo): 3 h
C=CCN1CC[C@]23c4c5ccc(O)c4O[C@H]2C(=O)CC[C@@]3(O)[C@H]1C5 [Naloxone]	0.5 h	–
CNS(=O)(=O)CCc1ccc2[nH]cc(C3CCN(C)CC3)c2c1 [Naratriptan]	5 h	–
CC(C)[C@H]1CC[C@H](C(=O)N[C@H](Cc2ccccc2)C(=O)O)CC1 [Nateglinide]	1.5 h	–
CCc1nn(CCCN2CCN(c3cccc(Cl)c3)CC2)c(=O)n1CCOc1ccccc1 [Nefazodone]	2 h	–
O=C(O)c1cccnc1Nc1cccc(C(F)(F)F)c1 [Niflumic Acid]	2.5 h	–
CS(=O)(=O)Nc1ccc([N+](=O)[O-])cc1Oc1ccccc1 [Nimesulide]	–	½ Life (in vivo): 1.8 h
COCCOC(=O)C1=C(C)NC(C)=C(C(=O)OC(C)C)C1c1cccc([N+](=O)[O-])c1 (centres unmarked) [Nimodipine]	1.7 h	–
CC(=O)Oc1ccccc1C(=O)Nc1ncc([N+](=O)[O-])s1 [Nitazoxanide]	3.5 h	–
O=C(O)c1cc(/N=N/c2ccc(O)c(C(=O)O)c2)ccc1O [Olsalazine]	0.9 h	–
COc1ccc2[nH]c([S+]([O-])Cc3ncc(C)c(OC)c3C)nc2c1 (centres unmarked) [Omeprazole]	0.5 h	–
Cc1nccn1CC1CCc2c(c3ccccc3n2C)C1=O (centres unmarked) [Ondansetron]	5.7 h	–
CCCCCCCCCCC[C@@H](C[C@@H]1OC(=O)[C@H]1CCCCCC)OC(=O)[C@H](CC(C)C)NC=O [Orlistat]	1 h	–
CCOC(=O)C1=C[C@@H](OC(CC)CC)[C@H](NC(C)=O)[C@@H](N)C1 [Oseltamivir]	1 h	–
C[C@]12COC(=O)C[C@@H]1CC[C@@H]1[C@@H]2CC[C@@]2(C)[C@H]1CC[C@]2(C)O [Oxandrolone]	0.55 h	–
C=CCOc1ccccc1OCC(O)CNC(C)C (centres unmarked) [Oxprenolol]	1 h	–
Cn1c(=O)c2[nH]cnc2n(C)c1=O [Oxtriphylline]	3 h	–
COc1ccc2c3c1O[C@H]1C(=O)CC[C@@]4(O)[C@@H](C2)N(C)CC[C@]314 [Oxycodone]	4.5 h	–
CN1CC[C@]23c4c5ccc(O)c4O[C@H]2C(=O)CC[C@@]3(O)[C@H]1C5 [Oxymorphone]	1.3 h	–
CC[C@H](C)[C@@H]1NC(=O)[C@H](Cc2ccc(O)cc2)NC(=O)[C@@H](N)CSSC[C@@H](C(=O)N2CCC[C@H]2C(=O)N[C@@H](CC(C)C)C(=O)NCC(N)=O)NC(=O)[C@H](CC(N)=O)NC(=O)[C@H](CCC(N)=O)NC1=O [Oxytocin]	–	½ Life (in vivo): 0.0166 h
